The test has as its target T1, human p85 SH2 domain (Homo sapiens, UniProt P27986).
T1 construct: made in house; host or cells: E. coli (pGEX-3X)
As to the kind of experiment: ELISA-based SH2 domain / pY peptide binding assay, p85 SH2 domain. As to the method:
The inhibitory activity of compounds at the different human SH2 domains was determined in vitro using SH2 domains expressed as fusion proteins in E. coli. The SH2 domains used herein were the human forms of the src SH2 domain, Grb2 SH2 domain, lck SH2 domain, fyn SH2 domain, SH-PTP2 SH2 domain, p85 SH2 domain and hcp SH2 domain.
Fusion proteins having the structure GST-X-SH2 were prepared as described in the GST gene fusion kit system available from Pharmacia (New Jersey). GST is the tagging sequence glutathione s-transferase epitope (SEQ ID NO: 8) for fyn, Grb2 and SH-PTP2 and is the tagging sequence glutathione s-transferase epitope (SEQ ID NO: 9) for p85. SH2 refers to the SH2 domains of fyn, Grb2, p85 and SH-PTP2 which were expressed and purified using glutathione Sepharose 4B (Pharmacia) according to "Current Protocols in Molecular Biology", ed. FM Ausubel et al., pub. John Wiley and Sons, Inc., (1995), p 16.7.1. X is an appropriate linker, preferably of 6 to 21 base pairs, used to keep the SH2 construct in frame and complement cloning. As such, the sequence of X is not critical. One skilled in the art can readily construct the appropriate linker. The DNA sequence encoding each GST-X-SH2 fusion protein was designed such that the indicated restriction sites (BamH1 and EcoRI) flank the SH2 region. […]
For orientation: In an ELISA, binding on a coated surface is turned into a signal by an enzyme label.

The source of these data is patent EP0728482A2, “Use of hcp specific compounds to enhance erythropoiesis” (SMITHKLINE BEECHAM CORPORATION, priority 1995, dated 1996).

T1 sequence (P27986 321-440): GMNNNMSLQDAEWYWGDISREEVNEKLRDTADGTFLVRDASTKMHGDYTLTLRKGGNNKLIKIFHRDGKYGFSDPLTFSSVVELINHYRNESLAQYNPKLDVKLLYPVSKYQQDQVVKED

A word on the Ki: it is the dissociation constant of the complex between target and ligand, obtained from inhibition or displacement. As usually defined, the IC50 is the concentration that gives 50% inhibition. Take `CCCCCCNC(=O)[C@H]1CC[C@H](CNC(=O)c2ccc(C(=O)c3ccc(C(=O)O)cc3)cc2)CC1` [Compound 6, 4-carboxy-benzophenone-4-carboxamido-trans-4-methyl-cyclohexyl-N-hexyl carboxamide]: where the note is “Ki calculated from IC50 with the expanded equation”, the Ki was over 1000 µM. Further, the IC50 (inhibition of binding of 0.1 uM biotinylated pY peptide to SH2 domain fusion protein) was over 300 µM.
